Experimental data from patent US6965113B2, “Fluorescence intensity multiple distributions analysis: concurrent determination of diffusion times and molecular brightness” (Evotec AG, priority 2000, dated 2005).
Where two headings read alike, the source gives them in different places. Square brackets hold non-standard residues; d marks the D form. Peptide text beside a SMILES is read from it. * marks the point of attachment. X1 = CC[N+]1=C(C=CC=CC=C2N(CCCCCC(=O)*)c3ccc(S(=O)(=O)O)cc3C2(C)C)C(C)(C)c2cc(S(=O)(=O)[O-])ccc21; pY = N[C@@H](Cc1ccc(OP(=O)(O)O)cc1)C(=O)O

Legend:
SH2 domain of Grb2 = target: T1, SH2 domain of Grb2 (Homo sapiens, UniProt P62993); assay: Experiment 1: titration of SH2 against constant 0.4 nM pTyr-Val-Asn-Val-Lys(Cy5), confocal fluorescence fluctuation measurement (FIMDA, FCS, FIDA), hyperbolic fit of fraction bound; conditions: 0.4 nM conjugate, same buffer, T=20° C., read-out: binding constant KD for the SH2-phosphopeptide interaction
T1 construct: as a model system, the bare SH2 domain (14.3 kDa) has been chosen; made in house
T1 sequence (P62993 60-152 limits assumed): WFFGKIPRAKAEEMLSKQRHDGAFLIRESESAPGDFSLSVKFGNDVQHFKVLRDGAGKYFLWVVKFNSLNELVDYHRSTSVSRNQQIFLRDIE
Description: The central optical part of the present FIMDA experiment is a confocal microscope as it is used in fluorescence correlation spectroscopy (Koppel et al., Biophys. J. 16: 1315-1329, 1976: Rigler et al., Eur. Biophys. J. 22: 169-175, 1993). For the excitation of fluorescence, a beam from a continuous wave laser is attenuated to ˜800 μW by neutral density filters, passes a beam expander, and is directed to the microscope objective (UApo/340, 40x, N.A. 1.15, Olympus Optical Co. Ltd., Tokyo, Japan) by a dichroic mirror. Fluorescence is collected by the said objective through the dichroic mirror, a spectral band-pass filter, and is focused to a confocal pinhole, which serves to reject the out-of-focus light. The light, which passes the pinhole, is detected by a silicon photon counting module (SPCM-AQ-131, EG&G Optoelectronics, Vaudreuil, Canada). […]
A series of simultaneously measured or simulated distributions is globally fitted using a Marquardt algorithm. […] Theoretical distributions are calculated using exactly the same algorithm as in FIDA, except that each species has an individual apparent concentration and an apparent brightness at each time window, calculated according to Eqs. […]

[1] = target: T2, SH2-domain of the adapter protein Grb2 (Homo sapiens, UniProt P62993); assay: Experiment 2: titration of SH2 against constant 0.8 nM pTyr-Val-Asn-Val-Lys(Cy5), FCS, FIDA and FIMDA data collected simultaneously; assay type: binding; conditions: 0.8 nM conjugate, T=20° C.
T2 construct: as a model system, the bare SH2 domain (14.3 kDa) has been chosen; made in house
T2 sequence (P62993 60-152 limits assumed): as above
Protocol: Since the diffusion time of the dye is […] (compared to 40 μs) it spends only a short time in the confocal volume and its apparent brightness decreases. From this information the diffusion time can be calculated from a global fit.
The viability of the present invention was tested by measurements characterizing a ligand-protein interaction. The minimal peptide sequence pTyr-Val-Asn (originating from tyrosine kinase growth factor receptors) binds to the SH2-domain of the adapter protein Grb2. The conjugate pTyr-Val-Asn-Val-Lys(Cy5) was synthesized as binding partner for SH2. All measurements were performed under identical conditions (e.g. same buffer: sterile filter water, 50 mM Na-phosphate buffer pH 7.8, 50 mM NaCl and 0.05% Pluronic; T=20° C.). To obtain the KD value for the ligand protein interaction a titration experiment was carried out. The pTyr-Val-Asn-Val-Lys(Cy5) concentration was kept constant at 0.8 nM, while SH2 was subject to titration (0.01, 0.03, 0.1, 0.3, 1, 3, 10, 30, 100, and 130 μM). Each sample was measured 30 times keeping the acquisition time at 30 seconds per measurement. FCS (prior art), FIDA (prior art) and FIMDA (present invention) data were collected simultaneously in order to compare all three methods. It becomes clear that FIMDA is able to resolve both, the specific brightness and the diffusion time of both species (ligand and complex). Therefore, FIMDA is a more versatile tool than FCS or FIDA and will save assay development time. Comparing the standard deviations of all methods in determining brightness and diffusion time FIMDA is better or at least as good as FCS or FIDA.

CC[N+]1=C(C=CC=CC=C2N(CCCCCC(=O)NCCCC[C@H](NC(=O)[C@@H](NC(=O)[C@H](CC(N)=O)NC(=O)[C@@H](NC(=O)[C@@H](N)Cc3ccc(OP(=O)(O)O)cc3)C(C)C)C(C)C)C(=O)O)c3ccc(S(=O)(=O)O)cc3C2(C)C)C(C)(C)c2cc(S(=O)(=O)[O-])ccc21 [pTyr-Val-Asn-Val-Lys(Cy5)] (H-[pY]VNVK(X1)-OH; N-terminus and C-terminus assumed)
Kd (SH2 domain of Grb2; FCS): 2160 ± 190 nM
Kd (SH2 domain of Grb2; FIDA): 1600 ± 190 nM
Kd ([1]; FCS, same buffer): 2260 ± 280 nM
Kd ([1]; FIDA, same buffer): 1700 ± 290 nM
Kd ([1]; FIMDA, 50 mM Na-phosphate buffer pH 7.8, 50 mM NaCl, 0.05% Pluronic): 1680 ± 270 nM
